Test systems include NCI-H226; SK-MEL-28; UACC-62; SK-MEL-2; SF-295; SW-620; NCI-H23; SR; HL-60; KM12; SNB-75; ACHN; HCC 2998; OVCAR-4; SK-MEL-5; LXFL 529.
Assay in all cases: NCI-60 cell line screen, 48 h

Each structure is given as a SMILES string.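 Assay format: 96-well plates, 48-hour exposure. GI50 is the concentration that inhibits growth by half.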 The source made the active and inactive calls. No stated cut-off is given here; in the data, active = GI50 up to about 1.1 µM and inactive = higher. Bounds are passed on as bounds.

Regarding `COC(=O)CC1(O)C(=O)OCc2c1cc1n(c2=O)Cc2c-1nc1ccccc1c2OC` (stereo not given), the GI50 with NCI-H226 was 0.115 µM (active); with SK-MEL-28, 27.5 µM (inactive); in the assay with UACC-62 it was 0.0869 µM (active); in the assay with SK-MEL-2, 16.1 µM (inactive); in the assay with SF-295 it was 0.151 µM (active); in the assay on SW-620, 0.515 µM (active). The GI50 in the assay on NCI-H23 is 0.188 µM (active); in the assay on SR it was < 0.01 µM (active); in the assay with HL-60, 0.0959 µM (active); in the assay on KM12, 5.27 µM (inactive); with SNB-75, 0.232 µM (active); in the assay with ACHN, 0.0689 µM (active). Besides, the GI50 in the assay on HCC 2998 is 3.71 µM (inactive); in the assay with OVCAR-4, 4.82 µM (inactive); in the assay with SK-MEL-5, 0.358 µM (active); in the assay on LXFL 529, 23.2 µM (inactive).

In the case of `O=C(N/C(=C\c1cc(Cl)ccc1Cl)c1nc2c(O)nc(S)nc2[nH]1)c1ccccc1`, the GI50 with NCI-H226 was > 100 µM (inactive); with SK-MEL-28, 28.1 µM (inactive); in the assay with UACC-62 it was 19.7 µM (inactive); in the assay with SK-MEL-2, 46.1 µM (inactive); in the assay on SF-295, 37.4 µM (inactive); in the assay on SW-620, 13.7 µM (inactive). Besides, the GI50 is 25.8 µM (inactive) with NCI-H23; 25.5 µM (inactive) in the assay on SR; 4.82 µM (inactive) in the assay on HL-60; 23.4 µM (inactive) with KM12; 34.2 µM (inactive) in the assay on SNB-75; 37.1 µM (inactive) in the assay with ACHN. In addition, the GI50 in the assay on HCC 2998 is 16.4 µM (inactive); in the assay on OVCAR-4 it was 39.9 µM (inactive); in the assay with SK-MEL-5, 47 µM (inactive); in the assay on LXFL 529, 15.6 µM (inactive).

For `Cc1cc(N(CCC#N)CCC#N)ccc1/C=C1N=C(/C=C\c2ccccc2)OC\1=O`, the GI50 in the assay on NCI-H226, with SK-MEL-28, with UACC-62, in the assay on SK-MEL-2, in the assay on SF-295 and in the assay with SW-620 was > 100 µM (inactive) in each case. The GI50 with NCI-H23 is > 100 µM (inactive); with SR, 30.3 µM (inactive); in the assay on HL-60, > 100 µM (inactive); in the assay with KM12 it was > 100 µM (inactive); in the assay on SNB-75, > 100 µM (inactive); in the assay on ACHN, > 100 µM (inactive). In addition, the GI50 in the assay with HCC 2998, with OVCAR-4, in the assay with SK-MEL-5 and in the assay on LXFL 529 was > 100 µM (inactive) in each case.

Consider `C/C(=N/NC(N)=S)c1ccc2ccccc2c1`, for which the GI50 was 39.8 µM (inactive) in the assay with NCI-H226; 36.1 µM (inactive) in the assay with SK-MEL-28; 9.42 µM (inactive) with UACC-62; 15.8 µM (inactive) in the assay on SK-MEL-2; 29.4 µM (inactive) in the assay with SF-295; 33.3 µM (inactive) with SW-620. The GI50 with NCI-H23 is 29.7 µM (inactive); in the assay with SR, 74.5 µM (inactive); with HL-60, 15 µM (inactive); in the assay with KM12, 9.16 µM (inactive); in the assay with SNB-75 it was 25.9 µM (inactive); in the assay with ACHN, 55.6 µM (inactive). Further, the GI50 in the assay on HCC 2998 is 16 µM (inactive); with OVCAR-4 it was 28.3 µM (inactive); in the assay on SK-MEL-5, 14.2 µM (inactive); in the assay with LXFL 529, 22.3 µM (inactive).

As to `O=C(Nc1ccc(Sc2ccc(/N=N/c3c(O)c(S(=O)(=O)O)cc4cc(S(=O)(=O)O)ccc34)cc2)cc1)c1ccc(/N=N/c2c(O)c(S(=O)(=O)O)cc3cc(S(=O)(=O)O)ccc23)cc1`, the GI50 in the assay with NCI-H226 is 39.3 µM (inactive); in the assay on SK-MEL-28, 32.1 µM (inactive); with UACC-62, 22.2 µM (inactive); with SK-MEL-2, 18.8 µM (inactive); in the assay on SF-295 it was 22.3 µM (inactive); in the assay with SW-620, 28.3 µM (inactive). The GI50 with NCI-H23 was 12.2 µM (inactive); in the assay on SR it was 10.9 µM (inactive); in the assay with HL-60, 6.97 µM (inactive); with KM12, 33 µM (inactive); with SNB-75, > 100 µM (inactive); in the assay with ACHN, 29.9 µM (inactive). The GI50 in the assay on HCC 2998 is > 100 µM (inactive); in the assay with OVCAR-4, 24.1 µM (inactive); with SK-MEL-5, 13.5 µM (inactive); with LXFL 529 it was 18.1 µM (inactive).

The record behind these values is ChEMBL document CHEMBL1201862, “PubChem BioAssay data set” (2004).
